According to US11345702B1 (Myoforte Therapeutics, Inc., priority 2020, dated 2022):
Several values for one entry are separate records, joined by “and”; a condition that tells them apart may be missing. Identical values can stand only once.

biological target: 15-PGDH/HPGD (Homo sapiens (Human), UniProt P15428); test: hPGDH inhibitor screening biochemical assay; conditions: read-out: hPGDH: Average IC50
Protocol: A hydroxyprostaglandin dehydrogenase inhibition screening biochemical assay can be performed to assess the synthesized inhibitors provided herein. Provided herein is an exemplary biochemical assay for hPGDH inhibitor screening.
The in vitro biochemical assay can be performed in white, 384 plates in total 20 μl reaction volume consisting of 10 nM of 15-PGDH/HPGD (R&D System #5660-DH), 15 μM Prostaglandin E2 (Sigma, Cat #P5640-10MG) and 0.25 mM (3-Nicotinamide adenine dinucleotide sodium salt (Sigma, Cat #N0632-5G) made in reaction buffer (50 mM Tris-HCl, pH 7.5, 0.01% Tween 20) at 10-point dose response curve for test/tool compounds. Briefly, 5 μl (4×) of compounds solution and 5 μl (final concentration, 10 nM) of enzyme solution is added to white 384 well plates and incubated for 10 mins at 37° C. 5 μl (4×) of Prostaglandin E2 and 5 μl (4×) of β-Nicotinamide adenine dinucleotide sodium salt is added to the wells and incubated for 10 mins at room temperature. Fluorescence is recorded at ex/em=340 nm/485 nm. The percentage (%) inhibition of enzyme activity was determined relative to positive control (1% DMSO) and IC50 was calculated using GraphPad prism software (four parameter-variable slope equation).

Sequence of 15-PGDH/HPGD (P15428 whole entry): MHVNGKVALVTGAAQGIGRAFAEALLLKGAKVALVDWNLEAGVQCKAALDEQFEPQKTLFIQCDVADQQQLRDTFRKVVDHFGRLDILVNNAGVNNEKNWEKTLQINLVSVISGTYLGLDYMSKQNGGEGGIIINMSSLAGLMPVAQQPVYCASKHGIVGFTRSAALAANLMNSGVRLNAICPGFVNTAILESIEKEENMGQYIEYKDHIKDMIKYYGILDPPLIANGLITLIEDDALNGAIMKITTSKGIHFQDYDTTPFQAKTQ

| SMILES | IC50 |
| --- | --- |
| N#Cc1cncc(-n2ccc3cc(C(=O)N4CCCCC4)cnc32)c1 [MF-DH-364] | < 100 nM |
| O=C(c1cnc2c(c1)c(Cl)cn2-c1cncnc1)N1CCC(F)CC1 [MF-DH-145] | < 100 nM |
| COc1ccc(-n2ccc3cc(C(=O)N4CCCCC4)cnc32)cc1 [MF-DH-297] | < 100 nM |
| N#Cc1ccc(-n2ccc3cc(C(=S)N4CCC(F)(F)CC4)cnc32)cc1 [MF-DH-449, 4-(5-(4,4-difluoropiperidine-1-carbonothioyl)-1H-pyrrolo[2,3-b]pyridin-1-yl)benzonitrile] | ≥ 1000 nM |
| NC(=O)c1ccc(-n2ccc3cc(C(=O)N4CCC(F)CC4)cnc32)cc1 [MF-DH-343] | < 100 nM |
| COc1ccc(-n2c(C)nc3cc(C(=O)N4CCC(F)CC4)cnc32)cc1 [MF-DH-176] | 100 to 1000 nM |
| N#Cc1ncc(-n2ccc3cc(C(=O)N4CCCCC4)cnc32)cn1 [MF-DH-397] | < 100 nM |
| O=C(Nc1cc(C2CC2)[nH]n1)c1cncc(-n2ccc3cc(C(=O)N4CCC(F)(F)CC4)cnc32)c1 [MF-DH-501, N-(5-cyclopropyl-1H-pyrazol-3-yl)-5-(5-(4,4-difluoropiperidine-1-carbonyl)-1H-pyrrolo[2,3-b]pyridin-1-yl)nicotinamide] | < 100 nM |
| O=C(c1cnc2c(c(Cl)cn2-c2cnccn2)c1Cl)N1CCC(F)CC1 [MF-DH-147] | < 100 nM |
| COc1cc(C(=O)N2CCCCC2)ccc1COc1ccccc1Cl [MF-PGDH-038] | < 100 nM |
| O=C(c1cnc2c(c1)c(Cl)cn2-c1cccnc1)N1CCC(F)CC1 [MF-DH-135] | < 100 nM |
| CC(C)(C(N)=O)c1cncc(-n2ccc3cc(C(=O)N4CCC(F)(F)CC4)cnc32)c1 [MF-DH-487, 2-(5-(5-(4,4-difluoropiperidine-1-carbonyl)-1H-pyrrolo[2,3-b]pyridin-1-yl)pyridin-3-yl)-2-methylpropanamide] | < 100 nM |
| COc1ccc(-n2c(N)nc3cc(C(=O)N4CCC(F)CC4)cnc32)cc1 [MF-DH-115] | 100 to 1000 nM |
| Cc1cn(-c2cncnc2)c2ccc(C(=O)N3CCC(F)CC3)cc12 [MF-DH-178, (4-fluoropiperidin-1-yl)(3-methyl-1-(pyrimidin-5-yl)-1H-indol-5-yl)methanone] | 100 to 1000 nM |
| N#Cc1ccc(-n2ccc3cc(C(=O)N4C[C@H](F)C[C@H](F)C4)cnc32)cc1 [MF-DH-417, 4-(5-((3R,5S)-3,5-difluoropiperidine-1-carbonyl)-1H-pyrrolo[2,3-b]pyridin-1-yl)benzonitrile] | 100 to 1000 nM and < 100 nM |
| O=C(c1cnc2c(c1)c(Cl)cn2-c1cncc(Cl)c1)N1CCCCC1 [MF-DH-274] | < 100 nM |
| CN(C)c1ccc(-n2ccc3cc(C(=O)N4CCCCC4)cnc32)cc1 [MF-DH-305] | < 100 nM |
| CC(C)(C#N)c1cncc(-n2ccc3cc(C(=O)N4CCC(F)(F)CC4)cnc32)c1 [MF-DH-509, 2-(5-(5-(4,4-difluoropiperidine-1-carbonyl)-1H-pyrrolo[2,3-b]pyridin-1-yl)pyridin-3-yl)-2-methylpropanenitrile] | < 100 nM |
| O=C(c1cnc2c(ccn2-c2cnccn2)c1)N1CCC(F)CC1 [MF-DH-123] | < 100 nM |

| SMILES | IC50 |
| --- | --- |
| CN(C)c1ccc(-n2ccc3cc(C(=O)N4CCCCC4)cnc32)cn1 [MF-DH-366] | < 100 nM |
| C[C@H]1CCCN(C(=O)c2cnc3c(ccn3-c3ccc(C(=O)O)cc3)c2)C1 [MF-DH-562, (S)-4-(5-(3-methylpiperidine-1-carbonyl)-1H-pyrrolo[2,3-b]pyridin-1-yl)benzoic acid] | < 100 nM |
| O=C(c1cnc2c(ccn2-c2ccc(C3(C(=O)O)CC3)cc2)c1)N1CCC(F)(F)CC1 [MF-DH-427, 1-(4-(5-(4,4-difluoropiperidine-1-carbonyl)-1H-pyrrolo[2,3-b]pyridin-1-yl)phenyl)cyclopropane-1-carboxylic acid] | 100 to 1000 nM |
| O=C(O)c1cncc(-n2ccc3cc(C(=O)N4CCC(F)(F)CC4)cnc32)c1 [MF-DH-425, 5-(5-(4,4-difluoropiperidine-1-carbonyl)-1H-pyrrolo[2,3-b]pyridin-1-yl)nicotinic acid] | < 100 nM |
| COc1ccc(-n2ccc3cc(C(=O)N4C[C@H](C)C[C@H](C)C4)cnc32)cc1 [MF-DH-329, ((3R,5S)-3,5-dimethylpiperidin-1-yl)(1-(4-methoxyphenyl)-1H-pyrrolo[2,3-b]pyridin-5-yl)methanone] | < 100 nM |
| O=C(c1cnc2c(ccn2-c2ccc(O)nc2)c1)N1CCC(F)CC1 [MF-DH-133] | < 100 nM |
| CC(C)(CC(=O)O)NC(=O)c1ccc(-n2ccc3cc(C(=O)N4CCC(F)(F)CC4)cnc32)cc1 [MF-DH-431] | < 100 nM |
| O=C(c1cnc2c(ccn2-c2ccn3ccnc3c2)c1)N1CCCCC1 [MF-DH-318] | < 100 nM |
| N#Cc1cc(-n2ccc3cc(C(=O)N4CCC(F)(F)CC4)cnc32)cnc1O [MF-DH-502] | < 100 nM |
| N#Cc1ccc(-n2ccc3nc(C(=O)N4CCC(F)CC4)ccc32)cc1 [MF-DH-462, 4-(5-(4-fluoropiperidine-1-carbonyl)-1H-pyrrolo[3,2-b]pyridin-1-yl)benzonitrile] | ≥ 1000 nM |
| O=C(c1cnc2c(c1)ncn2-c1ccc(OC(F)F)cc1)N1CCC(F)CC1 [MF-DH-222] | 100 to 1000 nM |
| COCCNC(=O)c1ccc(-n2ccc3cc(C(=O)N4CCCCC4)cnc32)cc1 [MF-DH-367] | < 100 nM |
| O=C(c1cnc2c(ccn2-c2cscn2)c1)N1CCCCC1 [MF-PGDH-074] | < 100 nM |
| NC(=O)c1cncc(-n2ccc3cc(C(=O)N4CCC(F)CC4)cnc32)c1 [MF-DH-351] | < 100 nM |
| NC[C@@H]1CN(c2cncc(-n3ccc4cc(C(=O)N5CCC(F)(F)CC5)cnc43)c2)C(=O)O1 [MF-DH-479] | < 100 nM |
| COc1cncc(-n2cc(Cl)c3cc(C(=O)N4CCCCC4)cnc32)c1 [MF-DH-275] | < 100 nM |
| Cc1nc2c(ccn2-c2cnccn2)cc1C(=O)N1CCC(F)CC1 [MF-DH-148] | ≥ 1000 nM |
| O=C(c1cnc2c(ccn2-c2ccccn2)c1)N1CCCCC1 [MF-PGDH-067] | < 100 nM |
| CCNC(=O)c1ccc(-n2ccc3cc(C(=O)N4CCC(F)(F)CC4)cnc32)cc1 [MF-DH-418] | < 100 nM |

More lines, now with the values ahead:

| IC50 | SMILES |
| --- | --- |
| < 100 nM | CCOC(=O)Cc1nc2cc(C(=O)N3CCCCC3)ccc2n1-c1cccc(Cl)c1 [MF-PGDH-030, ethyl 2-(1-(3-chlorophenyl)-5-(piperidine-1-carbonyl)-1H-benzo[d]imidazol-2-yl)acetate] |
| 100 to 1000 nM | COCCc1nc2cc(C(=O)N3CCC(F)CC3)ccc2n1-c1ccc(OC)cc1 [MF-DH-186] |
| < 100 nM | O=C(c1cnc2c(ccn2-c2cccc(Cl)c2)c1)N1CCCCC1 [MF-PGDH-014] |
| < 100 nM | O=C(c1cnc2c(ccn2-c2cccc(CO)c2)c1)N1CCC(F)CC1 [MF-DH-348] |
| < 100 nM | NC(=O)c1cccc(-n2ccc3cc(C(=O)N4CCCCC4)cnc32)c1 [MF-DH-301] |
| < 100 nM | O=C(c1cnc2c(ccn2-c2cccc(CO)c2)c1)N1CCCCC1 [MF-DH-308] |
| 100 to 1000 nM | O=C(c1ccc2c(c1)ncn2-c1cccc(Cl)c1)N1CCC(F)C1 (stereo not shown) [MF-PGDH-048] |
| < 100 nM | COc1ccc(Cn2cc3cc(-n4ccc5cc(C(=O)N6CCCCC6)cnc54)ccc3n2)cc1 [MF-DH-340] |
| 100 to 1000 nM | COc1ccc(-n2cnc3cc(C(=O)N4CC(F)C4)cnc32)cc1 [MF-DH-138] |
| < 100 nM | O=C(NCCO)c1cccc(-n2ccc3cc(C(=O)N4CCC(F)(F)CC4)cnc32)c1 [MF-DH-468, 3-(5-(4,4-difluoropiperidine-1-carbonyl)-1H-pyrrolo[2,3-b]pyridin-1-yl)-N-(2-hydroxyethyl)benzamide] |
| 100 to 1000 nM | CC(N)c1cccc(-n2ccc3cc(C(=O)N4CCCCC4)cnc32)c1 (stereo not shown) [MF-DH-376, (1-(3-(1-aminoethyl)phenyl)-1H-pyrrolo[2,3-b]pyridin-5-yl)(piperidin-1-yl)methanone] |
| < 100 nM | O=C(c1ccc2c(c1)CCCN2c1cccc(Cl)c1)N1CCCCC1 [MF-PGDH-057, (1-(3-chlorophenyl)-1,2,3,4-tetrahydroquinolin-6-yl)(piperidin-1-yl)methanone] |
| < 100 nM | O=C(c1ccc(CSc2ccccc2Cl)cc1)N1CCCCC1 [MF-PGDH-039] |
| < 100 nM | O=C(c1ccc2c(c1)ncn2-c1cccc(Cl)c1)N1CC(Cl)C1 [MF-PGDH-107] |
| 100 to 1000 nM | O=C(c1ccc2c(c1)c(Cl)nn2-c1cncc(Cl)c1)N1CCCCC1 [MF-DH-271] |
| < 100 nM | COc1cccc(-n2ccc3cc(C(=O)N4CCCCC4)cnc32)c1 [MF-DH-294] |
| < 100 nM | COc1ccc(-n2cnc3cc(C(=O)N4CCCCC4)ccc32)cc1Cl [MF-PGDH-024, (1-(3-chloro-4-methoxyphenyl)-1H-benzo[d]imidazol-5-yl)(piperidin-1-yl)methanone] |
| < 100 nM | O=C(c1ccc(COc2ccccc2-c2cncs2)cc1)N1CCCCC1 [MF-PGDH-097] |
| < 100 nM | COc1ccc(-n2cnc3cc(C(=O)N4CCCCC4)ccc32)nc1 [MF-PGDH-022] |
| < 100 nM | NC(=O)c1cccc(-n2ccc3cc(C(=O)N4CCC(F)CC4)cnc32)c1 [MF-DH-345] |
| < 100 nM | NC(=O)c1ccc(-n2ccc3cc(C(=O)N4CCCCC4)cnc32)cc1 [MF-DH-299] |
| < 100 nM | O=C(c1ccc2c(c1)ncn2-c1cccc(Cl)c1)N1CCC(Cl)C1 (stereo not shown) [MF-PGDH-049] |
| ≥ 1000 nM | O=C(Nc1ccccc1)c1ccc2c(c1)ncn2-c1cccc(Cl)c1 [MF-PGDH-065] |
